What was measured:
[1] = Dose dependence of 13CO2 concentration in expired air after oral 2-13C-labeled uracil (Example 3); format: in vivo, beagle dogs; conditions: dose of 10 to 80 μmol/kg body weight, FIGS. 5 and 6
Experimental: In 50 ml portions of 0.05N sodium hydroxide, 56.5 mg, 113.1 mg, 226.2 mg, and 452.3 mg of 2-^13C-labeled uracil (Cambridge Isotope Laboratory) were dissolved separately, to prepare solutions with concentrations of 10 μmol/ml, 20 μmol/ml, 40 μmol/ml, and 80 μmol/ml, respectively. The solutions were forcibly administered orally to fasted male beagle dogs (n=3) using oral tubes for dogs, in an amount of 1 ml/kg body weight (dose: […]), and thereafter water was forcibly administered orally in an amount of 2 ml/kg body weight. The expired air was collected before administration, and after 15, 30, 45, 60, 75, 90, 105, 120, 135, 150, 180, 210, and 240 minutes after administration. Then, the ^13C-labeled carbon dioxide concentration in the expired air was measured, and pharmacokinetic parameters (the area under the curve (AUC) and maximum ^13C-labled carbon dioxide concentration (Cmax)) were calculated from the obtained transition curve of the ^13C-labeled carbon dioxide concentration in the expired air.

[2] = target: T1, dihydropyrimidine dehydrogenase (DPD) (Canis lupus familiaris, UniProt A0A8I3P1X8); test: 13CO2 excretion in expired air after oral administration of 2-13C-labeled uracil preparation (Example 2); format: in vivo; conditions: FIG. 3
T1 construct: Fasted beagle dogs were used as experimental animals; from tissue; host or cells: whole living beagle dogs (in vivo)
T1 sequence (A0A8I3P1X8 1-1026): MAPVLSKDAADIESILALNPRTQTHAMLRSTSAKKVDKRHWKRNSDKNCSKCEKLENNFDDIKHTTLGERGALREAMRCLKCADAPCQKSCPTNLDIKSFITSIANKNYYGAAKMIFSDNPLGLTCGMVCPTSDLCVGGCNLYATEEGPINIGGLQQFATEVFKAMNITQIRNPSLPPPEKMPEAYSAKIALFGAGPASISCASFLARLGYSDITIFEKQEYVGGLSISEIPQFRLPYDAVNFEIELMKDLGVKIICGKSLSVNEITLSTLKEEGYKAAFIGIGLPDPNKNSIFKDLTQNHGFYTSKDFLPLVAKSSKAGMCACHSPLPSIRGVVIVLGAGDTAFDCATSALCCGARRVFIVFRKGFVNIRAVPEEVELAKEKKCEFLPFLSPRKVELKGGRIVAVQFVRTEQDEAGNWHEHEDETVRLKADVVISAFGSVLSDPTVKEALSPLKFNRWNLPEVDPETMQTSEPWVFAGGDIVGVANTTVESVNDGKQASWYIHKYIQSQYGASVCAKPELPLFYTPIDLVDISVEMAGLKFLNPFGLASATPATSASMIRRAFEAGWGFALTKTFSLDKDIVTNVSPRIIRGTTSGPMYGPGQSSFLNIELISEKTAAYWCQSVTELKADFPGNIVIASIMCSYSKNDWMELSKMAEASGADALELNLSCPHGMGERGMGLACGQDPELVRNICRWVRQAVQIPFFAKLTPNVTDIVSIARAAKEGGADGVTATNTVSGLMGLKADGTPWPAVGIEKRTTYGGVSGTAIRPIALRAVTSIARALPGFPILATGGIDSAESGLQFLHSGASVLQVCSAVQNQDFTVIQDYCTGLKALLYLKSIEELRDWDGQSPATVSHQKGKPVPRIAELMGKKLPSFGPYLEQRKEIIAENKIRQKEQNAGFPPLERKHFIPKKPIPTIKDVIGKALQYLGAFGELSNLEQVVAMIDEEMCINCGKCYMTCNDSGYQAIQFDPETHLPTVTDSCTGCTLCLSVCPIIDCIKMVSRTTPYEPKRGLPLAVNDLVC
Experimental: A preparation for determining the pyrimidine metabolic capacity in an oral form was prepared using the same 2-^13C-labeled uracil as used in Example 1 as an active ingredient, and tested for usefulness for measuring pyrimidine metabolic capacity.
2-^13C-labeled uracil (Cambridge Isotope Laboratory) (300 mg) was dissolved in 24 ml of 0.1N NaOH/saline solution (measured out from 200 ml of 0.1N NaOH/saline solution prepared by diluting 2 ml of 10N sodium hydroxide solution with physiological saline). Then, water was added to give 60 ml of a preparation for determining pyrimidine metabolic capacity in the form of an oral solution (containing 50 mg of 2-^13C-labeled uracil per 10 ml of the oral solution).
Fasted beagle dogs were used as experimental animals. In Group 1 (n=3), the preparation prepared above in (1) was orally administered (50 mg/10 ml/body) (test group). […] The concentration of ^13C-labeled carbon dioxide excreted in the expired air was measured in the same manner as in Example 1, using a GC-MS analyzer (ABCA-G, Europa Scientific). […]

[3] = target: T1, dihydropyrimidine dehydrogenase (DPD); test: 13CO2 excretion in expired air after intravenous injection of 2-13C-labeled uracil preparation (Example 1); format: in vivo; conditions: FIG. 2
Experimental: Uracil having […] carbon at the 2-position (2-^13C-labeled uracil) was used as an isotope-labeled pyrimidine compound. A preparation for determining the pyrimidine metabolic capacity in the form of an intravenous injection comprising the 2-^13C-labeled uracil as an active ingredient was prepared and tested for usefulness for determining pyrimidine metabolic capacity.
Uracil-2-^13C (Cambridge Isotope Laboratory) (300 mg) was dissolved in 24 ml of 0.1N NaOH/saline solution (measured out from 200 ml of 0.1N NaOH/saline solution prepared by diluting 2 ml of 10N sodium hydroxide solution with physiological saline), to give a preparation for determining the pyrimidine metabolic capacity in the form of an intravenous injection (containing 50 mg of uracil-2-^13C per 4 ml of the injection).
(E)-5-(2-bromovinyl)-uracil (250 mg) and gum arabic (2.25 g) were mixed together, and the mixture was kneaded while adding a slight amount of water, to prepare 45 ml of a suspension (containing 83.3 mg of (E)-5-(2-bromovinyl)-uracil per 15 ml of the suspension).
Fasted beagle dogs were used as experimental animals. […] The concentration of ^13C-labeled carbon dioxide excreted in the collected expired air was measured using a GC-MS analyzer (ABCA-G, Europa Scientific). […]

[4] = test system: pyrimidine metabolic pathway; conditions: administered to the body; Cancer (Phila), 68, 499-501, 1991; cited from earlier work
[5] = test system: dihydropyrimidine dehydrogenase (DPD); conditions: Cancer Research 46, 1094-1101, 1986; cited from earlier work

## O=c1cc[nH][13c](=O)[nH]1 [2-^13C-labeled uracil]
[1]
  excretion kinetics in the expired air (AUC and Cmax versus dose): has linearity
[2]; test group, fasted beagle dogs, oral 50 mg/10 ml/body, expired air 0-240 min
  metabolism and excretion in the expired air as 13CO2: metabolized and excreted in the expired air as ^13CO2
[3]; test group, fasted beagle dogs, intravenous injection 50 mg/body, expired air 0-240 min
  metabolism and excretion in the expired air as 13CO2: metabolized and excreted in the expired air as ^13CO2

## O=c1[nH]cc(F)c(=O)[nH]1 [5-FU, 5-fluorouracil]
[4]
  share of administered 5-FU degraded in the pyrimidine metabolic pathway: about 80%

## O=c1[nH]cc(/C=C/Br)c(=O)[nH]1 [(E)-5-(2-bromovinyl)-uracil]
[5]
  DPD inhibitor activity: known as a dihydropyrimidine dehydrogenase (DPD) inhibitor
[2]; DPD inhibitor 83.3 mg/15 ml/body orally 1 hour before oral 2-13C-labeled uracil 50 mg/10 ml/body, compared with test group
  excretion of 13CO2 in the expired air after DPD inhibitor pretreatment: markedly reduced
[3]; DPD inhibitor 83.3 mg/body orally 1 hour before intravenous 2-13C-labeled uracil 50 mg/body, compared with test group
  excretion of 13CO2 in the expired air after DPD inhibitor pretreatment: markedly lower excretion

From patent publication US7488466B2, “Preparation for determining pyrimidine metabolic capacity” (Otsuka Pharmaceutical Co., Ltd., priority 2002, dated 2009)
